Reference: patent publication US20160194274A1, “PHENANTHRENE DERIVATIVES FOR USE AS MEDICAMENTS” (VALENTIA BIOPHARMA, priority 2012, published 2016)
“Also recorded” adds a separate entry of the source.

Tests used:
MBNL1 = assay: Visualization and quantification of MBNL1 release in DM1 fibroblasts; assay type: cell-based, human; settings: 100 μM
Procedure: FIG. 4. Visualization and quantification of MBNL1 release (A). Visualization of MBNL1 release for VLT002: Upper row: Untreated DM1 fibroblasts with MBNL1 localizing as ribonuclear foci (see dots in middle and right pictures) to the nucleus (DAPI, detected as gray spherical shadow in left and right pictures). […] (B) Quantification of the area (into the nucleus), where MBNL1 present (Photoshop software), reflects the MBNL1 release after VLT002, VLT025, VLT045, VLT049 and VLT040 treatment (100 μM).
At the same time human cells were recollected for foci counting. Some (150,000-300,000) were prepared for Muscleblind (MBNL1) detection (see FIG. 4). After PBS washes, cells were probed overnight, at 4° C. with anti-MBNL1 antibody (1:5000 dilutions, A2764 antibody) in 1×PBS. After washing cells with 1×PBS, cells were incubated with goat anti-rabbit Alexa 488 (1:500 dilution) for 2 h at RT. Cells were washed 2 times, for 10 min at room temperature with 1×PBS and then mounted onto glass slides using a hard-set mounting media that contains DAPI (Vectashield). Cells were imaged on a Leica microscope.

[1] = system: ribonuclear foci in MyoD transformed fibroblasts derived from DM1 patients (>300 CTG repeats); assay: FISH detection of aberrant ribonuclear foci in human DM1 fibroblasts; assay type: cell-based; settings: 24 h treatment, vs no treatment
Procedure: FIG. 1. Quantification of aberrant ribonuclear foci (DM1 disease hallmark) in human DM1 fibroblasts. Treatments with the compounds of Formula I were performed (VLT002, VLT015, VLT025, VLT024, VLT042, VLT040, VLT023, VLT026, VLT048, VLT045, VLT043, VLT049, VLT051 VLT053 and VLT056). (A) Number (medium) of foci/nuclei (No treatment vs. compound treatment). (B) Number of cells without foci (No treatment vs. compound treatment). n=100 minimum number of cells counted. T-Student test: * indicates p-value <0.05 ** p-value p<0.005 *** p-value p<0.0005.
After screening identification of the compounds of the invention (see FIG. 10), main validation was done using Fluorescence In Situ Hybridization (FISH) detection of aberrant aggregation of ribonuclear foci in cell lines from DM1 patients (see FIG. 1) and in DM1 Drosophila model (see FIG. 2) (Garcia-Lopez et al., Proc. Natl. Acad. Sci. USA. 108(29):11866-71 (2011)). Briefly, regarding human cells, it was used MyoD transformed fibroblasts derived from clinically diagnosed DM1 patients (>300 CTG repeats) routinely growing in DMEM supplemented with 10% heat-inactivated fetal bovine serum and maintained at 37° C. in a humidified incubator containing 5% CO2. To detect ribonuclear foci, cells were cultured over cover-slides in flat bottomed 24-well plates, after 24 h compounds of the invention were added to the cells at desiderate concentration, 24 h later in situ hybridization was done by fixing with 4% paraformaldehyde (PFA) 15 min at room temperature, and washed and stored in 70% ethanol. Cells were rehydrated with PBS and pre-hybridized 10 min at room temperature with a pre-hybridization buffer (formamide 30%, 2× saline-sodium citrate buffer (SSC)). Hybridization was performed in a light-proof wet chamber using the same pre-hybridization buffer supplemented with 0.02% bovine serum albumin (BSA), 1 mg/ml yeast tRNA (Sigma), 2 mM sodium (meta)vanadate, 1 mg/ml sperm DNA, 10% dextran sulfate and 1 ng/μl RNase free HPCL-purified Cy3-labeled (CAG)10 RNA. After hybridization cells were washed 2×15 minutes at 45° C. with the pre-hybridization buffer and washed with 1×PBS at room temperature. Slides were mounted with Vectashield solution with DAPI and number of foci by cell and number of cells with/without foci (see FIG. 1) were counted in a minimum of 100 cells for each treatment and concentration tested with a 63× objective in a Leica microscope. Same FISH approach was performed in Drosophila DM1 flies, where thoraces were embedded in OCT and transversal sections were taken with a Leica CM 15105 cryomicrotome. Sections were processed for in situ hybridization and counting for number of foci by cell with the same Cy3-labeled (CAG)10 probe (see FIG. 2).

FAM-(CUG)10 RNA = assay: Gel retardation assay (fluorescence EMSA) with FAM-(CUG)10; assay type: binding
Procedure: FIG. 6. Study of the binding of some compounds of Formula I (VLT002, VLT025 and VLT026) to FAM-(CUG)10 (repeat tract present in DM1, HDL2, SCA8 diseases) by means of gel retardation assays.
Fluorescence Electrophoretic Mobility Shift Assay to test RNA-compound binding. Briefly, an aliquot of carboxyfluorescein (FAM)-CUG10 RNA (DM1, HDL2, SCA8; see FIG. 6) was heated at 70° C. for 5 min and diluted to 300 nM. The binding reaction with compounds was then carried out as described in (Garcia-Lopez A et al. Proc. Natl. Acad. Sci. USA. 108(29):11866-71 (2011)). The reaction mix was loaded onto 8% polyacrylamide nondenaturing gels, and electrophoresis was conducted at 4° C. in TB 1× for approximately 30 min at 240V, followed by fluorescence visualization. Quantification of the free RNA band intensity was carried out using the ImageJ software. A non-linear regression analysis was used to calculate EC50, based on a total of three experimental replicates. Same approach was developed with (FAM)-CCUG8 (DM2), CAG10 (SCA3), CGG10 (FXTAS), GGGGCC5 (ALS/FSD), UGGAA6 (SCA31) probes (see FIG. 9).

## CN(C)CCc1cc2c(c3c1ccc1ccccc13)OCO2 [VLT002, Stephenanthrine]
MBNL1
  MBNL1 sequestration / MBNL1 release (nuclear area where MBNL1 present): MBNL1 sequestration is relieved; also recorded: relieve MBNL1 sequestration
  formation of foci (MBNL1 ribonuclear foci): reduced formation of the foci; also recorded: effectively reduce the formation of foci
[1]
  aberrant ribonuclear foci: number of foci/nuclei (A) and/or number of cells without foci (B): significant reduction
FAM-(CUG)10 RNA
  binding to FAM-CUG10: bind to FAM-CUG10

## C[N+](C)(C)CCc1cc2c(c3c1ccc1ccccc13)OCO2 [VLT025]
MBNL1
  MBNL1 sequestration / MBNL1 release (nuclear area where MBNL1 present): relieve MBNL1 sequestration
  formation of foci (MBNL1 ribonuclear foci): effectively reduce the formation of foci
[1]
  aberrant ribonuclear foci: number of foci/nuclei (A) and/or number of cells without foci (B): significant reduction
FAM-(CUG)10 RNA
  binding to FAM-CUG10: bind to FAM-CUG10
